Data set [1] deals with M21 melanoma cells. In words: Short term survival assay after chemotherapy, adherent or suspended cells. Type of data set: cell-based, human. As to conditions: M21, siRNA transfected, 10 μM Ara-C, 3 days. As to the method:
(§1) FIG. 2. ALCAM mediates detachment-induced therapy resistance. (A) ALCAM expression by RT-PCR in M21 melanoma cells after transfection with indicated siRNAs. Values are means±SE. (B) Proliferation of M21 cells expressing either ALCAM or control siRNA. 5×10^5 cells were plated and after 72 h counted. Values are means±SD, (C) Short term survival assays—cells transfected with the indicated siRNAs were treated with chemotherapy (M21:10 μM Ara-C; VMM12:10 μM cisplatin) while adherent (Ad) or suspended (Sus). Cell survival was assayed after 3 days. Values are means±SE, n>3. (D) Adherent or suspended M21 cells were treated with 10 μM Ara-C, then washed and re-plated, and colonies counted after 10 days. Values are means±SD, n=3. **P<0.01, *P<0.05
(§2) We next asked whether ALCAM might play a causal role in chemoresistance induced by loss of integrin-mediated cell adhesion. We therefore designed and tested several siRNA sequences. […] We next examined chemosensitivity in adherent and suspended M21 and VMM12 melanoma lines. Cells transfected with two distinct ALCAM siRNAs (#10 or #11), or control siRNA, were treated with chemotherapy for 3 days, then survival assayed by re-plating on fibronectin. […] Control siRNA had no effect in either condition.
(§3) ALCAM can mediate homophilic adhesion, as well as heterophilic adhesion to CD6, both of which are blocked by a monoclonal antibody, AZN-L50 (van Kempen J Biol Chem. 2001; 276:25783-90; Zimmerman Blood. 2006; 107:3212-20). […] M21 and VMM12 cells were subject to chemotherapy for 72 h while adherent or suspended, in the presence or absence of AZN-L50. Survival was then assayed as before.
(§4) The human melanoma cell lines; M21, VMM12, VMM15, VMM1, VMM5A, VMM18 were cultured as described [Molhoek, 2008; Schwartz, 2008]. RPMI7951, A208, and A375.S2 were cultured in DMEM/F12 medium supplemented with 5% heat inactivated fetal bovine serum, 15 mM HEPES and penicillin-streptomycin. FM3 cells were grown in DMEM supplemented with 10% fetal bovine serum and penicillin-streptomycin. Cell survival assays and colony assay were performed as described before [Schwartz, 2008].

In data set [2] the test system is VMM12 melanoma cells. Described as above. In kind it is cell-based, human. The note with it: VMM12, siRNA transfected, 10 μM cisplatin, 3 days. The protocol: as §1, §2, §3, §4
The subject of the next data set is human melanoma. As to conditions: mouse xenografts of human melanoma, previous report [7]; cited from earlier work. (In general: A xenograft is tissue or cells of one species grown in another, often human tumour cells in immunodeficient mice.)
Data set [3] relates to focal adhesion kinase and p130cas. As to conditions: observed at nM concentrations; cited from earlier work.
For data set [4], the system named is subcutaneous M21 tumors. The experiment in a line: Mouse tumor growth, subcutaneous M21 tumors, AZN-L50 and/or cisplatin. As to conditions: SCID mice, s.c. M21 tumors, i.p., two treatments ~1 week apart; cisplatin 8 then 3.5 mg/kg, AZN-L50 100 μg/mouse. In kind it is in vivo.
Description: (A) Mice with palpable subcutaneous tumors were treated with cisplatin alone (CD), AZN-L50 (AZN) alone, or CD plus AZN-L50 (AZN+CD). Mice received 2 treatments 1 week apart. Tumor volume was then followed. Values are means±SE; n=8-11 mice.
Tumor generation and measurement was done as described [Schwartz, 2008]. Briefly male SCID mice (Charles River) were injected s.c. with 100,000 M21 cells. When tumors were first palpable, mice were injected I.P with cisplatin (8 mg/kg: first week and 3.5 mg/kg: second week), AZN-L50 (100 μg/mouse) or both for 2 consecutive weeks. The tumor volumes were recorded weekly.
All statistical analyses were done as described [Schwartz, 2008]. Briefly repeated measures models were used to compare tumor growth in control, cisplatin alone, AZN-L50 alone and cisplatin+AZN-L50 groups. These models account for the correlations among measurements taken from the same animal over time. We used linear models for the log-transformed tumor growth and the assumption that the correlation between measurements decreases with the amount of time between the measurements. F-tests based on contrasts were used to make specific comparisons between groups. All analyses were carried out in SAS 9.2 and GAUSS 10.0.
Data set [5] relates to subcutaneous M21 tumors. The experiment in a line: Mouse tumor growth, subcutaneous M21 tumors, FN-COMP and/or cisplatin. Type of data set: in vivo. The note with it: SCID mice; for Tumor growth / tumor size: s.c. M21 tumors, i.p., three treatments ~1 week apart, cisplatin 8 then 3.5 mg/kg, FN-COMP 500 μg/mouse. The protocol: (§5) FIG. 4, Example 2—FN-COMP in chemotherapy in vivo. (A) SCID mice were injected with 500 μg of FN-COMP. At the indicated times, plasma was analyzed by western blotting for fibronectin (FN). (B) Mice with palpable subcutaneous tumors were treated with cisplatin (CD), FN-COMP (FNC) alone, or CD plus FNC. Mice received 3 successive treatments 1 week apart. Tumor volumes were then followed. Values are means±SE, n=10-15 mice. For CD vs. CD+FNC: *P<0.0031. The error bars are asymmetric because the analysis was done in the log-scale, and then converted back to the original scale. Qualitatively similar results were obtained in 2 independent experiments.
(§6) Tumor generation in 6-8 wk old male SCID mice (Charles River Laboratories) and tumor measurement were done as described. When tumors were first palpable, mice were injected intraperitoneally (i.p.) with cisplatin (8 mg/kg: first week and 3.5 mg/kg: second and third weeks), FN-COMP (500 μg/mouse) or both for 3 consecutive weeks. The tumor volumes were recorded weekly. To assay levels in the blood, SCID mice with no tumors were injected intraperitoneally with FN-COMP (500 μg/mouse). Blood was collected at 0, 3, 6, or 24 h post injection. Plasma was subjected to Western blotting with the indicated antibodies. All animal procedures were done according to our institutional Animal Care and Use Committee guidelines.
Statistical analyses were done as described. Briefly, repeated measures models were used to compare tumor growth in control, cisplatin alone, FN-COMP alone and cisplatin+FN-COMP groups. These models account for the correlations among measurements taken from the same animal over time. We used linear models for the log-transformed tumor growth and the assumption that the correlation between measurements decreases with the amount of time between the measurements. F-tests based on contrasts were used to make specific comparisons between groups. All analyses were carried out in SAS 9.2 and GAUSS 10.0.

A further data set relates to A208 cells. In words: Ara-C concentration killing ~85% of adherent cells (preliminary experiments). Type of data set: cell-based, human. The note with it: Ara-C for 3 days.
From the text: (§7) FIG. 1. ALCAM correlates with detachment-induced therapy resistance. Relative ALCAM expression levels in melanoma measured by (A) microarray analysis and (B) RT-PCR. Expression levels are normalized to M21. Values are means±SE. (C) Relative ALCAM expression versus cell survival in additional melanoma cell lines. The graph represents detachment-induced resistance (“delta”) as the fold difference in survival between suspended versus adherent cells. Survival of adherent and suspended cells after treatment with chemotherapy (Ara-C) for 3 days was determined by replating on fibronectin. Concentrations of Ara-C were chosen for each cell line to kill ˜85% of adherent cells as determined in preliminary experiments. Concentrations were: A208 cells, 0.5 μM; A375.S2 cells, 0.3 μM; RPMI7951 cells, 5 μM, FM3: 10 μM). (D) Delta was plotted against ALCAM message level determined by RT-PCR. Values are means±SE, n>3.
as §4

A further data set concerns A375.S2 cells. The data set is described as above. As to conditions: Ara-C for 3 days. In kind it is cell-based, human.
From the text: as §7, §4

Another data set deals with FM3. The data set is described as above. Type of data set: cell-based, human. The note with it: Ara-C for 3 days.
From the text: as §7, §4

A further data set relates to RPMI7951 cells. The data set is described as above. Type of data set: cell-based, human. The note with it: Ara-C for 3 days.
From the text: as §7, §4

The next data set has as its system integrin signaling. In words: Tyrosine phosphorylation in suspended cells, Western blot with pY20. Type of data set: cell-based. As to conditions: suspended M21 melanoma or mouse 3T3 cells, FN-COMP 40 μg/ml. As to the method:
FIG. 2, Example 2—FN-COMP stimulates signaling in vitro. Either M21 melanoma or mouse 3T3 cells were left adherent (Ad) or detached and kept in suspension (sus) for 1 h. Suspended cells were either treated with of FN-COMP at 40 μg/ml for indicated times or left untreated. Lysates were analyzed by Western blotting using antiphosphotyrosine antibody pY20. Tubulin was used as a loading control. n=2.
Cells were lysed as previously described. Proteins were separated on SDS-PAGE gels, transferred, blocked, and probed with the indicated primary antibodies. Blots were washed, incubated with secondary antibodies and developed using ECL reagents (Pierce) and film (Kodak). FN-COMP under reducing and non-reducing condition was loaded on SDSPAGE gels and was subjected electrophoresis. Gels were stained with Coomassie Blue to visualize the bands.
Background: A western blot detects proteins with antibodies after separation by electrophoresis.

Data set [6] deals with M21 melanoma cells. In words: Cell survival of non-adherent cells after FN-COMP and X-irradiation. The note with it: M21 suspended, FN-COMP 40 μg/ml 30-45 min, then 10 Gy X-irradiation, survival 72 h later. Type of data set: cell-based, human. The protocol:
(§8) (A) M21, (B) VMM12 or (C) VMM18 melanoma cells were left adherent (Ad) or detached and kept in suspension (Sus) for 1 h. Suspended cells were then treated with of FN-COMP (FNC) at 40 μg/ml for 30-45 min followed by treatment with either 10 Gy X-irradiation (A) or Ara-C at 10 μM (B and C). Cell survival was assayed 72 h later. Values are means } SE, n=3. *P<0.05.
(§9) The human melanoma cell lines; M21, VMM12, VMM18 were cultured as described. Cell survival assays and colony assay were performed as described. Cells were irradiated using an X-ray irradiator at a dose rate of 3.3 Gy/min.

For data set [7], the system named is VMM12 melanoma cells. In words: Cell survival of non-adherent cells after FN-COMP and Ara-C. Type of data set: cell-based, human. The note with it: VMM12 suspended, FN-COMP 40 μg/ml 30-45 min, then Ara-C 10 μM, survival 72 h later. The protocol: as §8, §9
The next data set concerns VMM18 melanoma cells. The description is as above. In kind it is cell-based, human. The note with it: VMM18 suspended, FN-COMP 40 μg/ml 30-45 min, then Ara-C 10 μM, survival 72 h later. The protocol:
as §8, §9

Data set [8] is described as follows: FN-COMP levels in blood after intraperitoneal injection, plasma Western blot for fibronectin. In kind it is in vivo. The note with it: SCID mice, 500 μg/mouse i.p. As to the method: as §5, §6

For “ALCAM siRNA #11: siRNA that targets ALCAM, 5′-CACCTGCTCGGTGACATATTA-3′ (SEQ ID NO:4), described before [Hong, 2010] (other strand not cited, further chemistry not given here)”, in the data set with M21 melanoma cells [1], the “Cell survival, adherent cells” value is given as “no effect” and the “Cell survival, suspended cells” value is listed as “drastically reduced cell survival”. In the data set on VMM12 melanoma cells [2], the “Cell survival, adherent cells” value is recorded as “no effect” and the “Cell survival, suspended cells” value is given as “drastically reduced cell survival”.
Take contortrostatin: the “Therapeutic responses when combined with chemotherapy” value in the data set on human melanoma is “improved therapeutic responses”. In data set [3], the “Tyrosine phosphorylation of integrin targets” value is recorded as “strongly increased”.
Regarding `N.N.[Cl][Pt][Cl]` [cisplatin, cis-Dichlorodiamine platinum(II)], the “Tumor growth / tumor size” value is on record as “Neither AZN-L50 alone nor cisplatin alone had significant effects on tumor growth” in the data set on subcutaneous M21 tumors [4] and “Neither FN-COMP alone nor cisplatin alone had significant effects on tumor growth” with subcutaneous M21 tumors [5].
For the compound “ALCAM siRNA #10: siRNA that targets ALCAM, 5-GGAAACUAUGUCUGCGAAA-3 (SEQ ID NO:5) (listed as RNA, chemistry not given here)”, the “Cell survival, adherent cells” value with M21 melanoma cells [1] and in the data set with VMM12 melanoma cells [2] was “no effect” each time. Besides, the “Cell survival, suspended cells” value in the data set with M21 melanoma cells [1] and in the data set with VMM12 melanoma cells [2] was “drastically reduced cell survival” throughout.
Consider `Nc1ccn([C@@H]2O[C@H](CO)[C@@H](O)[C@@H]2O)c(=O)n1` [Ara-C, 1-β-D-arabinofuranosylcytosine], for which the “Concentration of Ara-C chosen to kill ˜85% of adherent cells” value in the data set with A208 cells amounted to 0.5 µM; in the data set on A375.S2 cells, 0.3 µM; in the data set with FM3, 10 µM; in the data set with RPMI7951 cells, 5 µM.
For the compound “FN-COMP: homo-pentameric construct of fibronectin peptides (type III repeats 5-11) linked by the assembly domain of COMP (amino acid residues 27-84)”, in the data set on integrin signaling, the “Tyrosine phosphorylation (characteristic of integrin signaling)” value is “increased tyrosine phosphorylation of bands around 60, 75 and 125 kD”. Besides, the “Response to therapy (radiosensitivity) of non-adherent cells” value in the data set with M21 melanoma cells [6] was “improved chemo and radiosensitivity”. In addition, in the data set on VMM12 melanoma cells [7], the “Response to therapy (chemosensitivity) of non-adherent cells” value was “improved chemo and radiosensitivity”. Further, the “Response to therapy (chemosensitivity) of non-adherent cells” value in the data set on VMM18 melanoma cells was “no effect”. Also, in data set [8], the “Stability in blood after injection” value is given as “at least 24 h” and the “Time of appearance in the blood” value was at most 3 h. Further, the “Side effects in the mice” value in the data set on subcutaneous M21 tumors [5] (3 weekly i.p. treatments) is “not observed”. Moreover, the “Tumor growth / tumor size” value with subcutaneous M21 tumors [5] is on record as “Neither FN-COMP alone nor cisplatin alone had significant effects on tumor growth”.

Values taken from US20160067314A1, “COMPOSITIONS AND METHODS FOR INHIBITING CHEMORESISTANCE IN CANCER AND IMPROVING RESPONSE TO THERAPY” (UNIVERSITY OF VIRGINIA PATENT FOUNDATION, priority 2013, published 2016).
